Drawing on US20260265262A1, “CDK2 INHIBITORS AND METHODS OF USING THE SAME” (Cedilla Therapeutics, Inc., priority 2022, published 2026), this text covers IC50 for 16 molecules.

The subject of one experiment is Kuramochi cells. The experiment in a line: IncuCyte cell proliferation assay. It counts as cell-based. The following applies: Kuramochi cells labeled with mApple-H2B, cell count 0 to 72 hours, 20 μM top concentration; read-out: IncuCyte Kuramochi RB-WT: IC50. Here is the method:
IncuCyte® assay was used to measure the effect of disclosed compounds on cell proliferation. Fluorescent microscopy images of cells were taken immediately after compound treatment and 72 hours later. Image analysis software was used to obtain cell counts as a function of compound concentration. Kuramochi cells labeled with mApple-H2B were seeded on 384-well assay-ready plates. Plates were placed in an IncuCyte® (Sartorius) and scanned at 0 and 72 hours. IncuCyte® software was used to count the number of fluorescent nuclei in each well. The fold change in cell count from 0 to 72 hours in wells treated with increasing compounds concentrations (10 pts, 1/2 log dilution, 20 μM top concentration) was normalized to DMSO control wells. The normalized cell counts were fit with dose response curves and a […] was calculated.

The target of another experiment is CDK2/Cyclin E1 (Homo sapiens, UniProt P24941). The experiment in a line: ADP-Glo Luminescent Kinase Assay (CDK2/E1-37C). The following applies: 0.18 nM CDK2/Cyclin E1, 100 μM ATP, 1.5 μM Histone H1, 37° C., 60 min pre-incubation; read-out: ADPGLO (CDK2/E1-37C): IC50. It counts as biochemical. As for the experimental part: Inhibition of CDK2/Cyclin E1 activity by the presence of small molecules was evaluated using ADP-Glo Luminescent Kinase Assay (Promega). Activated CDK2/Cyclin E1 was incubated with its substrate Histone H1 (SignalChem H10-54N) in the kinase reaction buffer (100 μM ATP, 50 mM HEPES pH 7.5, 10 mM MgCl2, 1 mM EDTA, 2 mM DTT, 0.01% Brij35, 0.5 mg/mL BSA). Luminescence was recorded with an Envision plate reader (PerkinElmer).
Dose titrations of inhibitors in 100% DMSO were combined with 0.36 nM CDK2/Cyclin E1 in reaction buffer. The mixtures were incubated for 60 minutes at 37° C. before the addition of ATP and Histone H1 substrate to initiate the kinase reaction. The final conditions were 0.18 nM CDK2/Cyclin E1, 100 μM ATP, and 1.5 μM Histone H1. The reactions were incubated at 37° C. for 90 minutes before being stopped with the addition of ADP-Glo reagent. This mixture was incubated at room temperature for 60 minutes before Kinase Detection Solution is added to generate luminescence. The stopped reactions were analyzed on an Envision plate reader. The conversion ratios were normalized to yield % activity, plotted against compound concentration, and fit to a four-parameter equation to determine the IC50 for each compound.
(In general: ADP-Glo turns the ADP formed in a reaction into a luminescent signal.)

For the molecule `C[C@@H](OCC12CCC(CC1)OC2)[C@H](NC(=O)[C@@H]1CN(C(=O)c2cnn(Cc3ccccc3C(=O)O)c2)CC12CN(C(=O)[C@H]1CC1(C)C)C2)C(=O)N1CCC2(CCNCC2)CC1` [Example I-96], the figures for the IC50 in the experiment on Kuramochi cells and on CDK2/Cyclin E1 were over 20 µM and under 0.5 µM, respectively. As to `C[C@@H](OCC12CCC(CC1)OC2)[C@H](NC(=O)[C@@H]1CN(C(=O)c2cnn(Cc3ccccc3C(=O)O)c2)CC12CN(C(=O)C1(C(F)(F)F)CC1)C2)C(=O)N1CCC2(CCNCC2)CC1` [Example I-60, 2-((4-((S)-8-(((2S,3R)-3-((2-oxabicyclo[2.2.2]octan-4-yl)methoxy)-1-oxo-1-(3,9-diazaspiro[5.5]undecan-3-yl)butan-2-yl)carbamoyl)-2-(1-(trifluoromethyl)cyclopropane-1-carbonyl)-2,6-diazaspiro[3.4]octane-6-carbonyl)-1H-pyrazol-1-yl)methyl)benzoic acid], the results for the IC50 with Kuramochi cells and on CDK2/Cyclin E1 were 0.5 to 5 µM and under 0.5 µM, respectively.

Take `CC1(C)C[C@@H]1C(=O)N1CC2(CN(C(=O)c3cncs3)C[C@H]2C(=O)N2CCC[C@@H](N(CC(=O)NS(C)(=O)=O)CC3CCCCC3)C2)C1` [Example I-70, 2-((cyclohexylmethyl)((R)-1-((S)-2-((S)-2,2-dimethylcyclopropane-1-carbonyl)-6-(thiazole-5-carbonyl)-2,6-diazaspiro[3.4]octane-8-carbonyl)piperidin-3-yl)amino)-N-(methylsulfonyl)acetamide]: the IC50 in the experiment with Kuramochi cells was over 20 µM; on CDK2/Cyclin E1 it was over 10 µM. On to `Cc1oc(=O)oc1COC(=O)C(C)(C)CNC(=O)[C@@H](NC(=O)[C@@H]1CN(C(=O)c2cnn(Cc3ccccc3)c2)CC12CN(C(=O)[C@H]1CC1(C)C)C2)[C@@H](C)OCC1CCCCC1` [Example I-32, (5-methyl-2-oxo-1,3-dioxol-4-yl)methyl 3-((2S,3R)-2-((S)-6-(1-benzyl-1H-pyrazole-4-carbonyl)-2-((S)-2,2-dimethylcyclopropane-1-carbonyl)-2,6-diazaspiro[3.4]octane-8-carboxamido)-3-(cyclohexylmethoxy)butanamido)-2,2-dimethylpropanoate], for which the figures for the IC50 in the experiment on Kuramochi cells and at CDK2/Cyclin E1 were 5 to 20 µM and under 0.5 µM, respectively. In the case of `COC(=O)C(C)(C)Oc1ccc(C2CCN(C(=O)[C@@H](NC(=O)[C@@H]3CN(C(=O)c4cnn(Cc5ccc(C(F)(F)F)cc5)c4)CC34CN(C(=O)C3(C(F)(F)F)CC3)C4)[C@@H](C)OCC34CCC(CC3)OC4)CC2)cc1C(F)(F)F` [Example I-98], the IC50 is over 20 µM in the experiment with Kuramochi cells and over 10 µM on CDK2/Cyclin E1. Turning to `C[C@@H](OCC12CCC(CC1)OC2)[C@H](NC(=O)[C@@H]1CN(C(=O)c2cnn(Cc3ccccc3C(=O)O)c2)CC12CN(C(=O)C1(C(F)(F)F)CC1)C2)C(=O)N1CCC(c2nccs2)CC1` [Example I-88, 2-((4-((S)-8-(((2S,3R)-3-(2-oxabicyclo[2.2.2]octan-4-ylmethoxy)-1-oxo-1-(4-(thiazol-2-yl)piperidin-1-yl)butan-2-yl)carbamoyl)-2-(1-(trifluoromethyl)cyclopropanecarbonyl)-2,6-diazaspiro[3.4]octane-6-carbonyl)-1H-pyrazol-1-yl)methyl)benzoic acid], the IC50 was over 20 µM in the experiment on Kuramochi cells and under 0.5 µM at CDK2/Cyclin E1. Consider `C[C@@H](OCC12CCC(CC1)OC2)[C@H](NC(=O)[C@@H]1CN(C(=O)c2cnn(Cc3ccc(C(F)(F)F)cc3)c2)CC12CN(C(=O)C1(C(F)(F)F)CC1)C2)C(=O)NCCC(=O)O` [Example I-75], for which the IC50 is over 20 µM with Kuramochi cells and 5 to 10 µM on CDK2/Cyclin E1.

For `COC(=O)CC1CN(C(=O)[C@@H]2CN(C(=O)c3cncs3)CC23CN(C(=O)[C@H]2CC2(C)C)C3)CCN1CC1CCCCC1` (some centres unmarked) [Example I-21], the IC50 in the experiment on Kuramochi cells is over 20 µM; at CDK2/Cyclin E1 it was over 10 µM.

Turning to `COC(=O)CCNC(=O)[C@@H](NC(=O)[C@@H]1CN(C(=O)c2cnn(Cc3ccc(F)cc3)c2)CC12CN(C(=O)C1(C(F)(F)F)CC1)C2)[C@@H](C)OCC12CCC(CC1)OC2` [Example I-111, Methyl 3-((2S,3R)-3-((2-oxabicyclo[2.2.2]octan-4-yl)methoxy)-2-((S)-6-(1-(4-fluorobenzyl)-1H-pyrazole-4-carbonyl)-2-(1-(trifluoromethyl)cyclopropane-1-carbonyl)-2,6-diazaspiro[3.4]octane-8-carboxamido)butanamido)propanoate], the IC50 was over 20 µM in the experiment on Kuramochi cells and under 0.5 µM on CDK2/Cyclin E1. As to `C[C@@H](OCC1CCOCC1)[C@H](NC(=O)[C@@H]1CN(C(=O)c2cnc(O)cn2)CC12CN(C(=O)C1(C(F)(F)F)CC1)C2)C(=O)N1CCC(C(F)(F)F)CC1` [Example I-78, (S)-6-(5-hydroxypyrazine-2-carbonyl)-N-((2S,3R)-1-oxo-3-((tetrahydro-2H-pyran-4-yl)methoxy)-1-(4-(trifluoromethyl)piperidin-1-yl)butan-2-yl)-2-(1-(trifluoromethyl)cyclopropane-1-carbonyl)-2,6-diazaspiro[3.4]octane-8-carboxamide], the IC50 in the experiment with Kuramochi cells is over 20 µM; at CDK2/Cyclin E1 it was under 0.5 µM. For `C[C@@H](OCC12CCC(CC1)OC2)[C@@H](COC1CCC(c2nccs2)CC1)NC(=O)[C@@H]1CN(C(=O)c2cnn(Cc3ccc(C(F)(F)F)cc3)c2)CC12CN(C(=O)C1(C(F)(F)F)CC1)C2` (stereo partly drawn) [Example I-107, (S)—N-((2R,3R)-3-(2-oxabicyclo[2.2.2]octan-4-ylmethoxy)-1-((4-(thiazol-2-yl)cyclohexyl)oxy)butan-2-yl)-6-(1-(4-(trifluoromethyl)benzyl)-1H-pyrazole-4-carbonyl)-2-(1-(trifluoromethyl)cyclopropanecarbonyl)-2,6-diazaspiro[3.4]octane-8-carboxamide], the IC50 in the experiment on Kuramochi cells fell in the range of 5 to 20 µM; on CDK2/Cyclin E1, 0.5 to 5 µM. In the case of `C[C@@H](OCC1(C(F)(F)F)CC1)[C@H](NC(=O)[C@@H]1CN(C(=O)c2cnn(Cc3ccc(C(F)(F)F)cc3)c2)CC12CN(C(=O)C1(C(F)(F)F)CC1)C2)C(=O)N1CCC(c2ccc(C(=O)O)cc2)CC1` [Example I-68, 4-(1-(N—((S)-6-(1-(4-(trifluoromethyl)benzyl)-1H-pyrazole-4-carbonyl)-2-(1-(trifluoromethyl)cyclopropane-1-carbonyl)-2,6-diazaspiro[3.4]octane-8-carbonyl)-O-((1-(trifluoromethyl)cyclopropyl)methyl)-L-threonyl)piperidin-4-yl)benzoic acid], the IC50 with Kuramochi cells is over 20 µM; at CDK2/Cyclin E1, 0.5 to 5 µM. For the molecule `COC(=O)C1CCN(C(=O)[C@@H](NC(=O)[C@@H]2CN(C(=O)c3cnn(Cc4ccccc4)c3)CC23CN(C(=O)[C@H]2CC2(C)C)C3)[C@@H](C)OCC2CCCCC2)CC1` [Example I-17], the IC50 in the experiment on Kuramochi cells and at CDK2/Cyclin E1 was under 0.5 µM throughout. As to `C[C@H](OCC12CCC(CC1)OC2)[C@@H](NC(=O)[C@@H]1CN(C(=O)c2cnc(O)cn2)CC12CN(C(=O)C1(C(F)(F)F)CC1)C2)C(=O)N1CCC(c2ccc(C(F)(F)F)c(C(=O)O)c2)CC1` [Example I-82, 5-(1-(O-((2-oxabicyclo[2.2.2]octan-4-yl)methyl)-N—((S)-6-(5-hydroxypyrazine-2-carbonyl)-2-(1-(trifluoromethyl)cyclopropane-1-carbonyl)-2,6-diazaspiro[3.4]octane-8-carbonyl)-D-threonyl)piperidin-4-yl)-2-(trifluoromethyl)benzoic acid], the IC50 with Kuramochi cells was over 20 µM. Take `C[C@@H](OCC12CCC(CC1)OC2)[C@@H](CN1CCC(C(=O)O)CC1)NC(=O)[C@@H]1CN(C(=O)c2cnn(Cc3ccc(C(F)(F)F)cc3)c2)CC12CN(C(=O)C1(C(F)(F)F)CC1)C2` [Example I-97, 1-((2R,3R)-3-((2-oxabicyclo[2.2.2]octan-4-yl)methoxy)-2-((S)-6-(1-(4-(trifluoromethyl)benzyl)-1H-pyrazole-4-carbonyl)-2-(1-(trifluoromethyl)cyclopropane-1-carbonyl)-2,6-diazaspiro[3.4]octane-8-carboxamido)butyl)piperidine-4-carboxylic acid]: the IC50 at CDK2/Cyclin E1 was over 10 µM. On to `C[C@@H](OCC1(C(=O)O)CCCCC1)[C@H](NC(=O)[C@@H]1CN(C(=O)c2cnn(Cc3ccc(C(F)(F)F)cc3)c2)CC12CN(C(=O)C1(C(F)(F)F)CC1)C2)C(=O)N1CCC(c2nccs2)CC1` [Example I-76, 1-((((2R,3S)-4-oxo-4-(4-(thiazol-2-yl)piperidin-1-yl)-3-((S)-6-(1-(4-(trifluoromethyl)benzyl)-1H-pyrazole-4-carbonyl)-2-(1-(trifluoromethyl)cyclopropanecarbonyl)-2,6-diazaspiro[3.4]octane-8-carboxamido)butan-2-yl)oxy)methyl)cyclohexanecarboxylic acid], for which the IC50 at CDK2/Cyclin E1 lay within 5 to 10 µM.
